Laboratory results from patent US20060029548A1, “Methods of diagnosing, monitoring and treating pulmonary diseases” (priority 2004, published 2006).

Assays:
Assay type in all cases: in vivo
[1] = test system: human subjects (perception of dyspnoea); assay: Borg score for dyspnoea before and after inhalation challenge; parameters: key to ΔBorg (change in Borg score before and after challenge): Borg score after minus before challenge; 0–10 scale
Description: (§1) The clinical study described in Examples 2-4 was randomized, double blind, crossover, and controlled. Each subject attended the laboratory on three occasions. Procedures on the initial screening visit included obtaining information about the study and a number of investigations in the following order: medical history, lung function, reversibility and skin prick testing. At visit 2 and 3, separated by 2-7 days, the subjects were subjected to either an ATP or AMP challenge in a randomized fashion such that, by the end of the study, each patient had been tested with both compounds. Before, immediately after, and 30 minutes after the challenge, lung function and Borg score for dyspnoea were determined, and symptoms other than dyspnoea were recorded.
The modified Borg scale used to quantitate dyspnoea in the clinical study described in Examples 2-4 was a category scale in which words describing degrees of breathlessness were anchored to numbers between 0 and 10. The subjects were asked to select a number whose corresponding words most appropriately described their perception of breathlessness. The change in dyspnoea was expressed as ΔBorg, which was the difference in Borg score before and after the challenge [Rutgers et al. (2000) Eur. Respir. J. 16:486-490; Burdon et al. (1982) Am. Rev. Respir. Dis. 126:825-828]. Terms and associated numbers used in assessing Borg score were as follows: 0, “nothing at all”; 0.5, “very, very slight”; 1, “very slight”; 2, “slight”; 3, “moderate”; 4, “somewhat severe”; 5, “severe”; 7, “very severe”; 9, “very, very severe (almost maximal)”; and 10, “maximal” [Burdon et al. (1982)].
(§2) For the tests described in Examples 2-4, ATP and AMP (Sigma, Gillingham, Dorset, England) were dissolved freshly in normal saline solution to produce a range of doubling concentrations from 0.227-929 umol/ml for ATP and from 0.138-1152 umol/ml for AMP and immediately used for bronchial challenge. The solutions were administered using a breath-activated dosimeter (Mefar, Bovezzo, Italy) with an output of 10 ul per inhalation [Prieto et al. (2003) Chest 123:993-997]. The subjects, while wearing a nose clip, inhaled (via a mouthpiece) five breaths of normal saline, followed by sequential doubling concentrations of either ATP or AMP from functional residual capacity to total lung capacity. FEV1 was measured from two minutes after the fifth inhalation of normal saline until there was a fall in FEV1 of ≧20% of its value recorded after saline inhalation or until maximal concentration of either ATP or AMP was inhaled. The provocative dose causing a 20% decrease in FEV1 (PD20) was calculated by interpolation of the logarithmic dose response curve.

[2] = test system: human subjects (cough, throat irritation, sputum); assay: Symptoms other than dyspnoea recorded after inhalation challenge; conditions: all subjects
Description: as §1, §2

vagal C fiber = assay: Vagal activation experiments in dogs: action potentials in vagal C fibers; conditions: anesthetized dog, rapid bolus; simultaneous recording with RAR-containing fiber
Method: The experiments described in Example 5 were performed essentially as described in Pelleg et al. [(1996) J. Physiol. 490(1):265-275] and U.S. Pat. No. 5,874,420, both of which are incorporated herein by reference in their entirety. In brief, they were performed on anesthetized (sodium pentobarbitone, 30 mg kg^−1 plus 3 mg kg^−1 h^−1, intravenous) dogs artificially ventilated with room air using a respirator. Arterial blood pH, PO2, PCO2, body temperature were maintained as described in U.S. Pat. No. 5,874,420. A peripheral vein was cannulated for the administration of physiological saline solution and maintenance doses of anesthetic. Catheters were introduced via the femoral vein and left atrial appendage and positioned in the right atrium and left atrium for the administration of test solutions. The chest was opened by a longitudinal sternotomy. The right cervical vagosympathetic trunk was exposed by a midcervical longitudinal section of the skin and careful dissection of neck muscles and connective tissues. The edges of the cut skin were elevated and secured to create a trough which was filled with warm (about 37° C.) mineral oil. A section of the vagosympathetic trunk was placed on a small plate of black Perspex™ and fine branches were separated from the main bundle by careful dissection using microsurgical tools and a dissecting microscope (Model F212, Jenopik Jena, GmbH, Germany).
Extracellular neural action potentials were recorded using a custom-made bipolar electrode that contained two platinum-iridium wires (1.25 cm×0.0125 cm) connected to a high-impedence first-stage differential amplifier (model AC8331, CW, Inc., Ardmore, Pa.) via a shielded cable. The output of the first-stage amplifier was fed into a second-stage differential amplifier (model BMA-831/C, CWE, Inc.). Isolated fibers were laid on the pair of platinum-iridium wires. Vagal C fibers with chemosensitive endings have a sparse irregular discharge which is not associated with cardiac or respiratory cycles. […]
ATP (3 umole kg^−1) and capsaicin (10 ug kg^−1) were administered as a rapid bolus into the right atrium (5 ml test solution+5 ml physiological saline flush). α,βmATP and β,γmATP were given as one low dose only (0.75 umol kg^−1) to avoid systemic side effects. […] To exclude involvement of baroreceptors in the recorded neural activity, the latter was monitored before and after a bolus of nitroglycerine (1 mg; intravenous). […]

## Nc1ncnc2c1ncn2[C@@H]1O[C@H](COP(=O)(O)OP(=O)(O)OP(=O)(O)O)[C@@H](O)[C@H]1O [ATP, adenosine 5′-triphosphate]
[1]; COPD
  ΔBorg (change in Borg score before and after challenge): 2.6
[1]; COPD patients
  Borg score after challenge (at PD20): 2.7
[1]; healthy smokers
  Borg score after challenge: 1.3
[1]; patients with asthma
  Borg score after challenge (at PD20): 3.3
  ΔBorg (change in Borg score before and after challenge): 3.2
[1]; smokers at risk
  Borg score after challenge: 1.9
[2]
  subjects who coughed after challenge: 90%
  subjects who had sputum after challenge: 28%
  subjects who had throat irritation after challenge: 75%
Vagal C fiber
  effect on action potentials of C fibers: stimulated both the C fibers and RAR-containing fibers
